Test results taken from patent US20020049173A1, “Alteration of cellular behavior by antisense modulation of mRNA processing” (priority 1999, published 2002).
pIC50: −log10 of the molar value. In the oligonucleotide strings, read from the 5' end, every base follows the letter of its sugar. An asterisk marks phosphorothioate; unmarked linkages are phosphodiester. Other units and linkages are bracketed, terminal groups are in braces. A string of capitals states the bases alone. e = 2'-O-(2-methoxyethyl) (MOE); [5mC] = 5-methylcytosine; d = 2'-deoxy (DNA)

How the values were obtained:
[1] = test system: Human IL-5 receptorα membrane form mRNA; test: Human IL-5 receptorα membrane form mRNA expression (18 hr); type: cell-based; set-up: % INHIB'N, human IL-5 receptorα membrane form mRNA / % of CONTROL, human IL-5 receptorα membrane form mRNA: concentration or dose not given beside the values; conditions: 18 hr
Description: mRNA transcripts encoding the membrane form of the human IL-5 receptorα contain exons 1-10 and 12-14. Exon 11 is spliced out. It is, therefore, possible to target sequences in exons 1-10 which are common to both soluble and membrane forms of the receptor, or to selectively target sequences only present in the membrane form (exons 12-14). Oligonucleotides were also designed to target various intron/exon boundaries downstream of exon 11, with the intention of preventing successful splicing out of exon 11 and thus redirecting splice products away from the membrane form and in favor of the soluble form of IL-5 receptorα.
(§1) A series of oligonucleotides were designed to target various splice sites or (intron-exon boundaries) in the IL-5 receptor mRNA.

Human IL-5 receptorα = Human IL-5 receptorα protein expression on the cell surface (36 hr), TF-1 cells; type: cell-based; set-up: % INHIB, human IL-5 receptorα protein on the cell surface / % of CONTROL, human IL-5 receptorα protein on the cell surface: concentration or dose not given beside the values; conditions: for % INHIB, human IL-5 receptorα protein on the cell surface / % of CONTROL, human IL-5 receptorα protein on the cell surface: 36 hr
Description: as §1
ISIS 16746, 16748, 16755 and 16758 inhibited human IL-5 receptorα protein by over 50% in this assay and are therefore preferred. ISIS 16758 and 16755 were chosen for further study.

[2] = test system: murine IL-5 receptor α mRNA, membrane form; test: Membrane IL-5 receptor α mRNA by Northern blot in BCL1 cells; type: cell-based, mouse; conditions: BCL1 cells, 10 μM, Northern blot, compared to untreated control; 2′-MOE gapmers
Description: (§2) Murine BCL1 cells were chosen for screening antisense oligonucleotides targeted to murine IL-5 receptor α. These are B-cell leukemia cells derived from a spontaneously arising tumor of BALB/c origin, and proliferate in response to murine or human IL-5. This is a CD5+line which resembles a subset of human chronic lymphocytic leukemia tumors and secretes IgM upon lipopolysaccharide stimulation. Cells were obtained from the American Type Culture Collection and cultured in RPMI 1640 medium supplemented with 10% heat-inactivated fetal bovine serum (Sigma Chemical Co., St. Louis, Mo.), 10 mM Hepes, pH 7.2, 50 μM 2-ME, 2 mM L-glutamine, 100 U/ml penicillin and 100 μg/ml streptomycin (Gibco, Grand Island, N.Y.).
(§3) The effect of these compounds on both membrane and soluble forms of murine IL-5 receptor α were measured and are shown in Table 1B. Oligonucleotides were screened in BCL1 cells at a dose of 10 μM and IL-5 receptor α mRNA was measured by Northern blot. Percent inhibition is compared to untreated (no oligo) control.
(§4) Total BCL1 cellular RNA was isolated using the RNeasy™ kit (Qiagen, Santa Clara Calif.) . Northern blotting was performed using standard methods. The cDNA probes were generated from oligonucleotides matching the exon sequences of either exons 2, 8, 9 or 10. Signals were quantitated using a Molecular Dynamics PhosphorImager.

[3] = test system: murine IL-5 receptor α mRNA, soluble form; test: Soluble IL-5 receptor α mRNA by Northern blot in BCL1 cells; type: cell-based, mouse; conditions: BCL1 cells, 10 μM, Northern blot, compared to untreated control; 2′-MOE gapmers
Description: as §2, §3, §4

16746 (antisense eA*e[5mC]*e[5mC]*e[5mC]*eA*eG*e[5mC]*eT*eT*eT*e[5mC]*eT*eG*e[5mC]*eA*eA*eA*eA*e[5mC]*eA) [compound 16746]
% INHIB'N, human IL-5 receptorα membrane form mRNA [1]: 64%
% of CONTROL, human IL-5 receptorα membrane form mRNA [1]: 36%
% INHIB, human IL-5 receptorα protein on the cell surface (Human IL-5 receptorα): 65%
% of CONTROL, human IL-5 receptorα protein on the cell surface (Human IL-5 receptorα): 35%

16747 (antisense ACCCAGCTTTCTGCAAAACA; listed as DNA, chemistry not fully specified) [compound 16747]
% INHIB'N, human IL-5 receptorα membrane form mRNA [1]: 34%
% of CONTROL, human IL-5 receptorα membrane form mRNA [1]: 66%
% INHIB, human IL-5 receptorα protein on the cell surface (Human IL-5 receptorα): 19.5%
% of CONTROL, human IL-5 receptorα protein on the cell surface (Human IL-5 receptorα): 80.5%

16748 (antisense ACCCAGCTTTCTGCAAAACA; listed as DNA, chemistry not fully specified) [compound 16748]
% INHIB'N, human IL-5 receptorα membrane form mRNA [1]: 75%
% of CONTROL, human IL-5 receptorα membrane form mRNA [1]: 25%
% INHIB, human IL-5 receptorα protein on the cell surface (Human IL-5 receptorα): 59.5%
% of CONTROL, human IL-5 receptorα protein on the cell surface (Human IL-5 receptorα): 40.5%

16749 (antisense eT*e[5mC]*eA*eA*e[5mC]*eA*eT*eT*eA*e[5mC]*e[5mC]*eT*e[5mC]*eA*eT*eA*eG*eT*eT*eA) [compound 16749]
% of CONTROL, human IL-5 receptorα membrane form mRNA [1]: 101%
% INHIB, human IL-5 receptorα protein on the cell surface (Human IL-5 receptorα): 25%
% of CONTROL, human IL-5 receptorα protein on the cell surface (Human IL-5 receptorα): 75%

16750 (antisense dT*dC*dA*dA*dC*dA*dT*dT*dA*dC*e[5mC]*eT*e[5mC]*eA*eT*eA*eG*eT*eT*eA) [compound 16750]
% INHIB'N, human IL-5 receptorα membrane form mRNA [1]: 4%
% of CONTROL, human IL-5 receptorα membrane form mRNA [1]: 96%
% INHIB, human IL-5 receptorα protein on the cell surface (Human IL-5 receptorα): 9%
% of CONTROL, human IL-5 receptorα protein on the cell surface (Human IL-5 receptorα): 91%

16751 (antisense eT*e[5mC]*eA*eA*e[5mC]*dA*dT*dT*dA*dC*dC*dT*dC*dA*dT*eA*eG*eT*eT*eA) [compound 16751]
% INHIB'N, human IL-5 receptorα membrane form mRNA [1]: 4%
% of CONTROL, human IL-5 receptorα membrane form mRNA [1]: 96%
% of CONTROL, human IL-5 receptorα protein on the cell surface (Human IL-5 receptorα): 101%

16752 (antisense eT*eA*eA*eA*eT*eG*eA*e[5mC]*eA*eT*e[5mC]*eT*eG*eA*eA*eA*eA*e[5mC]*eA*eG) [compound 16752]
% of CONTROL, human IL-5 receptorα membrane form mRNA [1]: 101%
% of CONTROL, human IL-5 receptorα protein on the cell surface (Human IL-5 receptorα): 100.5%

16753 (antisense dT*dA*dA*dA*dT*dG*dA*dC*dA*dT*e[5mC]*eT*eG*eA*eA*eA*eA*e[5mC]*eA*eG) [compound 16753]
% INHIB'N, human IL-5 receptorα membrane form mRNA [1]: 2%
% of CONTROL, human IL-5 receptorα membrane form mRNA [1]: 98%
% INHIB, human IL-5 receptorα protein on the cell surface (Human IL-5 receptorα): 4%
% of CONTROL, human IL-5 receptorα protein on the cell surface (Human IL-5 receptorα): 96%

16754 (antisense eT*eA*eA*eA*eT*dG*dA*dC*dA*dT*dC*dT*dG*dA*dA*eA*eA*e[5mC]*eA*eG) [compound 16754]
% of CONTROL, human IL-5 receptorα membrane form mRNA [1]: 101%
% of CONTROL, human IL-5 receptorα protein on the cell surface (Human IL-5 receptorα): 100.5%

16755 (antisense eG*eA*eA*e[5mC]*eA*e[5mC]*eT*eT*eA*e[5mC]*eA*eT*eT*eT*eT*eA*e[5mC]*eA*eG*eA) [compound 16755]
% INHIB'N, human IL-5 receptorα membrane form mRNA [1]: 84%
% of CONTROL, human IL-5 receptorα membrane form mRNA [1]: 15.5%
% INHIB, human IL-5 receptorα protein on the cell surface (Human IL-5 receptorα): 89.5%
% of CONTROL, human IL-5 receptorα protein on the cell surface (Human IL-5 receptorα): 10.5%

16756 (antisense dG*dA*dA*dC*dA*dC*dT*dT*dA*dC*eA*eT*eT*eT*eT*eA*e[5mC]*eA*eG*eA) [compound 16756]
% INHIB'N, human IL-5 receptorα membrane form mRNA [1]: 4%
% of CONTROL, human IL-5 receptorα membrane form mRNA [1]: 96%
% of CONTROL, human IL-5 receptorα protein on the cell surface (Human IL-5 receptorα): 101%

16757 (antisense eG*eA*eA*e[5mC]*eA*dC*dT*dT*dA*dC*dA*dT*dT*dT*dT*eA*e[5mC]*eA*eG*eA) [compound 16757]
% INHIB'N, human IL-5 receptorα membrane form mRNA [1]: 9%
% of CONTROL, human IL-5 receptorα membrane form mRNA [1]: 91%
% INHIB, human IL-5 receptorα protein on the cell surface (Human IL-5 receptorα): 19%
% of CONTROL, human IL-5 receptorα protein on the cell surface (Human IL-5 receptorα): 81%

16759 (antisense dT*dC*dA*dT*dC*dA*dT*dT*dT*dC*e[5mC]*eT*eG*eG*eT*eG*eG*eA*eA*eA) [compound 16759]
% INHIB'N, human IL-5 receptorα membrane form mRNA [1]: 19%
% of CONTROL, human IL-5 receptorα membrane form mRNA [1]: 81%
% INHIB, human IL-5 receptorα protein on the cell surface (Human IL-5 receptorα): 24.5%
% of CONTROL, human IL-5 receptorα protein on the cell surface (Human IL-5 receptorα): 75.5%

16760 (antisense eT*e[5mC]*eA*eT*e[5mC]*dA*dT*dT*dT*dC*dC*dT*dG*dG*dT*eG*eG*eA*eA*eA) [compound 16760]
% INHIB'N, human IL-5 receptorα membrane form mRNA [1]: 24%
% of CONTROL, human IL-5 receptorα membrane form mRNA [1]: 76%
% INHIB, human IL-5 receptorα protein on the cell surface (Human IL-5 receptorα): 29%
% of CONTROL, human IL-5 receptorα protein on the cell surface (Human IL-5 receptorα): 71%

18001 (CAAGGACTTCCTTTCCTTTC; antisense; listed as DNA, chemistry not fully specified) [compound 18001]
% inhibition of membrane IL-5 Rα [2]: 35%
% inhibition of soluble IL-5 Rα [3]: 39%

18002 (GCCATTCTACCAAGGACTTC; listed as DNA, chemistry not fully specified) [compound 18002]
% inhibition of membrane IL-5 Rα [2]: 5%
% inhibition of soluble IL-5 Rα [3]: 8%

18003 (ACAATGAGATGCCATTCTAC; antisense; listed as DNA, chemistry not fully specified) [compound 18003]
% inhibition of membrane IL-5 Rα [2]: 15%
% inhibition of soluble IL-5 Rα [3]: 20%

18004 (TGTTGGGAGCACAATGAGAT; antisense; listed as DNA, chemistry not fully specified) [compound 18004]
% inhibition of membrane IL-5 Rα [2]: 10%
% inhibition of soluble IL-5 Rα [3]: 20%

ISIS 16746: ACCCAGCTTTCTGCAAAACA, SEQ ID 31; human IL-5R I13/E14; 2′-MOE pattern (bold) not visible (antisense eA*e[5mC]*e[5mC]*e[5mC]*eA*eG*e[5mC]*eT*eT*eT*e[5mC]*eT*eG*e[5mC]*eA*eA*eA*eA*e[5mC]*eA)
% INHIB'N, human IL-5 receptorα membrane form mRNA [1]: over 50%
% INHIB, human IL-5 receptorα protein on the cell surface (Human IL-5 receptorα): over 50%

ISIS 16748: ACCCAGCTTTCTGCAAAACA, SEQ ID 31; human IL-5R I13/E14; 2′-MOE pattern not visible (antisense eA*e[5mC]*e[5mC]*e[5mC]*eA*dG*dC*dT*dT*dT*dC*dT*dG*dC*dA*eA*eA*eA*e[5mC]*eA)
% INHIB'N, human IL-5 receptorα membrane form mRNA [1]: over 50%
% INHIB, human IL-5 receptorα protein on the cell surface (Human IL-5 receptorα): over 50%

ISIS 18002: GCCATTCTACCAAGGACTTC, SEQ ID 2; 2′-MOE gapmer, mouse IL-5R exon 9 (listed as DNA, chemistry not fully specified)
% inhibition of membrane IL-5 Rα [2]: inhibitor of both forms of IL-5 receptorα

ISIS 18009: TCATCATTTACTGGTGGAAA, SEQ ID 36; mismatch of 16758 (antisense eT*e[5mC]*eA*eT*e[5mC]*eA*eT*eT*eT*eA*e[5mC]*eT*eG*eG*eT*eG*eG*eA*eA*eA) [reference compound]
pIC50 (Human IL-5 receptorα; TF-1 cells, read-out: IC50 for reduction of IL-5 receptorα cell surface protein): 5.00

ISIS 18010: TCAGCATTTACTGGTGTAAA, SEQ ID 37; mismatch of 16758 (antisense eT*e[5mC]*eA*eG*e[5mC]*eA*eT*eT*eT*eA*e[5mC]*eT*eG*eG*eT*eG*eT*eA*eA*eA) [reference compound]
inhibition of IL-5 receptorα expression (mismatch controls) (Human IL-5 receptorα; TF-1 cells): did not inhibit

ISIS 18011: TCAGCAGTTACTTGTGTAAA, SEQ ID 38; 5-mismatch for 16758 (antisense eT*e[5mC]*eA*eG*e[5mC]*eA*eG*eT*eT*eA*e[5mC]*eT*eT*eG*eT*eG*eT*eA*eA*eA) [reference compound]
inhibition of IL-5 receptorα expression (mismatch controls) (Human IL-5 receptorα; TF-1 cells): did not inhibit
